Data published in article PMC7769078 (International Journal of Nanomedicine, 2020).

Tests used:
zebrafish larvae (7 dpf) = experiment: C6-NPs endocytosis in larval zebrafish with endocytic inhibitors; type: in vivo, zebrafish (Danio rerio); details: 7 dpf larvae, 30 min inhibitor, C6-NPs 100 ng/mL 30 min
SH-SY5Y cells = experiment: Cytoprotection against MPP+-induced cell death in SH-SY5Y cells; type: cell-based, human; details: for viability of MPP+-treated SH-SY5Y cells: 2 h pre-treatment, then 2 mM MPP+ 36 h

CN(C)CCCN1c2ccccc2Sc2ccc(Cl)cc21 [CPZ, chlorpromazine]
inhibitory effect on C6-NPs internalization in zebrafish larvae (zebrafish larvae (7 dpf)): most profound inhibitory effect

C[n+]1ccc(-c2ccccc2)cc1 [MPP^+, 1-methyl-4-phenylpyridinium ion]
cell death induced in SH-SY5Y cells (SH-SY5Y cells; 2 mM MPP+, 36 h): 47.6%

Ginkgolide B [GB]
viability of MPP+-treated SH-SY5Y cells (SH-SY5Y cells; 1 μM): 60%
viability of MPP+-treated SH-SY5Y cells (SH-SY5Y cells; 5 μM): 65%
viability of MPP+-treated SH-SY5Y cells (SH-SY5Y cells; 10 μM): 71%
viability of MPP+-treated SH-SY5Y cells (SH-SY5Y cells; 20 μM): 78%

methyl-β-cyclodextrin [MβCD]
inhibitory effect on C6-NPs internalization in zebrafish larvae (zebrafish larvae (7 dpf)): most profound inhibitory effect
